Reference: US6682920B1, “Compositions and methods for identifying PKB kinase inhibitors” (Onyx Pharmaceuticals, Inc., priority 1997, dated 2004)
Entries after “also recorded” stand apart in the source; their conditions may differ.

Columns and labels:
PKB kinases A-D = experiment: PtdIns lipid-dependent phosphorylation and activation of PKB by purified PKB kinases (lipid vesicle assay); type: biochemical, sheep; details: mixed lipid vesicles, (EE)-PKB 2.5 μM, [γ32P]-ATP; FIG. 2A/2B
Method: Assays were run in 2 stages. The first stage was run with mixed lipid vesicles either with or without D-D-S/A-PtdIns(3,4,5)P3 (final concentration 5 μM) and in the presence or absence of PKB kinase A (6 nM), wild-type (EE)-PKB (2.5 μM) or T308A/S473A-(EE)-PKB) and [γ^32P]-ATP (50 μM). The assays were stopped and PKB proteins were immunoprecipitated with α(EE)-beads, washed then incubated with [γ^32P]-ATP (10 μM) and myelin basic protein (MBP; 7 μM) to determine the activity of the immobilized PKB. The results are from a single experiment and are represented as means±SE(n=3-5); four further experiments gave similar results. PKB kinases B, C and D gave very similar results.
Assays contained; a constant concentration of mixed lipid vesicles containing the indicated concentrations of inositol phospholipids, (EE)-PKB (2.5 μM), PKB kinase A (5 nM) and [γ^32P]-ATP (1 μM, total volume 12 μl). The data shown are pooled from 12 separate experiments and are means (n=3-6, their average se was 6%).
(§1) To assay association of PKB and PKB kinases with lipid vesicles and the effects of different lipids on the phosphorylation of PKB, the lipid vesicles were prepared by: sonicating dry lipid films into 0.2 M sucose; 20 mM KCl; 20 mM HEPES, pH 7.4 30° C.; 0.01% azide (to give 200 μM phosphatidylcholine, 150 μM phosphatidylserine, 20 μM phosphatidylethanolamine, 10 μM spingomylin plus the indicated concentrations of inositol lipids final in the assay. These were mixed with the relevant kinases in an assay buffer containing 1 mgml^−1 BSA; 0.12 M NaCl; 1 mM EGTA; 0.2 mM calcium; 1.5 mM MgCl2; 1 mM DTT; 0.01% azide; 5 mM KCl; 20 mM HEPES, pH 7.4, 30° C. (approx. 50 nM free calcium, all final concentrations in assay) with or without [γ^32P]-ATP (1 μM final concentration) and (EE)-PKB (2.5 μM final concentration). If the assays were to estimate associated of the kinases with the lipid vesicles then after 4 mins at 30° C. the assays were centrifuged (airfuge (Beckman) maximum speed for 30 mins). Aliquots of the supernatents were removed for assays or immunoblotting. The pellets were rinsed rapidly with assay buffer, recentrifuged and dissolved in SDS-sample buffer. Phosphorylation of PKB(s) were quantitated as described above. […]

PKB kinases [1] = experiment: Association of PKB kinases with sucrose-loaded lipid vesicles containing inositol phospholipids; type: binding, sheep
Method: as §1, with “The pellets were rinsed rapidly with assay buffer, recentrifuged and dissolved in SDS-sample buffer.” left out
Under the same assay conditions used for the PKB phosphorylation studies, we investigated the association of both the PKB kinases and PKB itself (FIG. 2C) with the lipid vesicles in these assays. […] Phosphorylation of PKB(s) was quantitated as described herein.

[2] = target: (EE)-PKB, EE-tagged protein kinase B purified from SF9 cells (UniProt P31749)
PKB kinases [3] = experiment: Phosphorylation of a water-soluble 30-mer peptide based on the PKB sequence around Thr308 by PKB kinases; type: biochemical, sheep; details: not shown
[4] = target: (EE)-PKB, EE-tagged protein kinase B purified from SF9 cells, P31749
Sequence of (EE)-PKB, EE-tagged protein kinase B purified from SF9 cells, P31749 (P31749 whole entry, looked up): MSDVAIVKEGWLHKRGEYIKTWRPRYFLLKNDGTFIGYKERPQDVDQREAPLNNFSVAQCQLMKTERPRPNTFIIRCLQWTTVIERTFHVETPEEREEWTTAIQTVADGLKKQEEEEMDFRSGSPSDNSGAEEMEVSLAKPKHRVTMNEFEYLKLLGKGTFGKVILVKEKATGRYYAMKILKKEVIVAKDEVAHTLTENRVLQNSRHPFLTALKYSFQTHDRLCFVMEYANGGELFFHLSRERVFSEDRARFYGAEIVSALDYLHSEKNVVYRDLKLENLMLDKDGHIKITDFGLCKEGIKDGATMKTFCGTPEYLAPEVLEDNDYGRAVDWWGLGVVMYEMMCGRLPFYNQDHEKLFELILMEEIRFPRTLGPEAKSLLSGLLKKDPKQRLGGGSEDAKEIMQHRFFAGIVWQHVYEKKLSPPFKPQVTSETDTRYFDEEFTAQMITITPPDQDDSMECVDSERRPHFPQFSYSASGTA

Molecule: CCCCC/C=C\C/C=C\C/C=C\C/C=C\CCCC(=O)OC(COC(=O)CCCCCCCCCCCCCCCCC)COP(=O)(O)OC1C(O)C(OP(=O)(O)O)C(OP(=O)(O)O)C(OP(=O)(O)O)C1O [D-D-S/A-PtdIns(3,4,5)P3, (1-stearoyl, 2-arachidonyl) snphosphatidyl D-myo-inositol (3,4,5)-trisphosphate]
- PKB kinase phosphorylation/activation of PKB in the presence of the lipid (PKB kinases A-D): phosphorylate and activate; also recorded: equally effectively activated
- molar percentage of the lipid in vesicles at which PKB kinases associated (PKB kinases [1]; very low molar percentages): 0.003%

Molecule: CCCCCCCCCCCCCCCC(=O)OC[C@H](COP(=O)(O)O[C@H]1[C@H](O)[C@@H](O)[C@H](OP(=O)(O)O)[C@@H](OP(=O)(O)O)[C@H]1O)OC(=O)CCCCCCCCCCCCCCC [D-D-P/P-PtdIns(3,4)P2]
- association of PKB kinases with lipid vesicles containing the lipid (PKB kinases [1]; 4 mins at 30° C., vesicles pelleted by centrifugation): associated with the lipid vesicles

Molecule: PKB kinase A purified from sheep brain cytosol
- phosphorylation and activation of PKB (activation judged by myelin basic protein phosphorylation) [2]: All four activities phosphorylate and activate (as judged by mylein basic protein (MBP) phosphorylation) PKB in the presence of the biological stereoisomers of PtdIns(3,4,5)P3 or PtdIns(3,4)P2

Molecule: phosphatidylinositol-3,4-bisphosphate [PtdIns(3,4)P2]
- PKB kinase phosphorylation/activation of PKB in the presence of the lipid (PKB kinases A-D): phosphorylate and activate
- effect of the lipid on phosphorylation of 30-mer PKB Thr308 peptide (PKB kinases [3]): dramatically inhibited

Molecule: phosphatidylinositol-3,4,5-triphosphate [PtdIns(3,4,5)P3]
- effect of the lipid on phosphorylation of 30-mer PKB Thr308 peptide (PKB kinases [3]): dramatically inhibited

Molecule: phosphatidylinositol4,5-bisphosphate [PtdIns(4,5)P2]
- PKB kinase phosphorylation/activation of PKB in the presence of the lipid (PKB kinases A-D): inactive against PKB

Molecule: CCCCC/C=C\C/C=C\C/C=C\C/C=C\CCCC(=O)OC(COC(=O)CCCCCCCCCCCCCCCCC)COP(=O)(O)OC1C(O)C(OP(=O)(O)O)C(OP(=O)(O)O)C(OP(=O)(O)O)C1O [D-L-S/A-PtdIns(3,4,5)P3, (2-arachidonyl, 3-stearoyl) sn-phosphatidyl D-myoinositol(3,4,5)-trisphosphate]
- PKB kinase phosphorylation/activation of PKB in the presence of the lipid (PKB kinases A-D): equally effectively activated

B1: (EE)-II, N-terminally EE-tagged 55 kd PKB kinase (complete ORF of FIG. 3) expressed in cos-7 cells (protein)
chain: MARTTSQLYDAVPIQSSVVLCSCPSPSMVRSQTESSTPPGIPGGSRQGPAMDGTAAEPRPGAGSLQHAQPPPQPRKKRPEDFKFGKILGEGSFSTVVLARELATSREYAIKILEKRHIIKENKVPYVTRERDVMSRLDHPFFVKLYFTFQDDEKLYFGLSYAKNGELLKYIRKIGSFDETCTRFYTAEIVSALEYLHGKGIIHRDLKPENILLNEDMHIQITDFGTAKVLSPESKQARANSFVGTAQYVSPELLTEKSACKSSDLWALGCIIYQLVAGLPPFRAGNEYLIFQKIIKLEYDFPEKFFPKARDLVEKLLVLDATKRLGCEEMEGYGPLKAHPFFESVTWENLHQQTPPKLTAYLPAMSEDDEDCYGNYDNLLSQFGCMQVSSSSSSHSLSASDTGLPQRSGSNIEQYIHDLDSNSFELDLQFSEDEKRLLLEKQAGGNPWHQFVENNLILKMGPVDKRKGLFARRRQLLLTEGPHLYYVDPVNKVLKGEIPWSQELRPEAKNFKTFFVHTPNRTYYLMDPSGNAHKWCRKIQEVWRQRYQSHPDAAVQ
- PKB kinase activity ([32P] in PKB, autoradiogram) [4]: The protein with the intact protein kinase domain phosphorylated PKB in a PtdIns(3,4,5)P3-sensitive manner
